One assay relates to S. aureus - USA300. As to conditions: Table 2.
Assay [1] has as its system S. pneumoniae - ATCC 33400. As to conditions: Table 2. On the procedure: (§1) Methods for Dilution Antibacterial Susceptibility Tests for Bacteria That Grow Aerobically; Approved Standard—Tenth Edition (2015). Clinical and Laboratory Standards Institute Document M07-A10. • 2. Methods for Antimicrobial Susceptibility Testing of Anaerobic Bacteria; Approved Standard—Eighth Edition (2012). Clinical and Laboratory Standards Institute Document M11-A8. • 3. Antimycobacterial activity was determined as described in Journal of Clinical Microbiology (2009, 47:1773-1780) by Springer et al. Quantitative drug susceptibility testing of Mycobacterium tuberculosis by use of MGIT 960 and EpiCenter Instrumentation.

In assay [2] the test system is S. aureus - ATCC 13709 (Fully susceptible). Description: MIC, CLSI dilution susceptibility test (aerobic). In kind it is cell-based. The conditions noted are these: for Minimal Inhibitory Concentration (MIC): Table 2, S. aureus - ATCC 13709 (Fully susceptible). From the text:
Clinical and Laboratory Standards Institute Document M07-A10. • 2. […] Clinical and Laboratory Standards Institute Document M11-A8. • 3.

The subject of assay [3] is S. aureus - ATCC 1683 (Methicillin resistant). As to conditions: for Minimal Inhibitory Concentration (MIC): Table 2, S. aureus - ATCC 1683 (Methicillin resistant).
Assay [4] deals with S. pneumoniae 6883 (Penicillin resistant). The conditions noted are these: Table 3, Gram-positive aerobe.
The subject of another assay is M. tuberculosis H37Rv. As to conditions: Table 3, Mycobacteria.
The test system of assay [5] is E. faecium 31152980 (Van A resistant). The conditions noted are these: Table 3, Gram-positive aerobe.
Assay [6] deals with S. epidermidis 37361192 (Methicillin sensitive). As to conditions: Table 3, Gram-positive aerobe. How it is done:
as §1

The test system of the next assay is P. acnes 1201. As to conditions: Table 3, Gram-positive anaerobe. On the procedure: as §1
The next assay deals with S. mitis 39050149. The conditions noted are these: Table 3, Gram-positive aerobe. How it is done:
as §1

A further assay relates to S. oralis 39151368. The conditions noted are these: Table 3, Gram-positive aerobe. How it is done: as §1
The test system of the next assay is C. difficile ATCC 700057. As to conditions: Table 3, Gram-positive anaerobe. How it is done: as §1
In a further assay the test system is S. pyogenes 37352281. As to conditions: Table 3, Gram-positive aerobe. How it is done:
as §1

Assay [7] concerns S. pneumoniae R119 (R6 like) (Penicillin sensitive). The conditions noted are these: Table 3, Gram-positive aerobe. On the procedure:
as §1

The test system of assay [8] is E. faecium ATCC1858 (Vancomycin (Van) sensitive). The conditions noted are these: Table 3, Gram-positive aerobe. How it is done:
as §1

The test system of a further assay is S. agalactiae 31432663. The conditions noted are these: Table 3, Gram-positive aerobe. How it is done: as §1
Assay [9] relates to E. faecium 31430797 (Van B resistant). As to conditions: Table 3, Gram-positive aerobe.
Assay [10] concerns S. epidermidis 31435861 (Methicillin resistant). As to conditions: Table 3, Gram-positive aerobe.

On to `C/N=C(\NC)NCCCCCCCCCCCCCCC(=O)NC(C)C(=O)NC1CC2(CS/C=C\NC(=O)C(CO)NC(=O)C(CCC(N)=O)NC2=O)NC(=O)CNC(=O)C(CC(C)C)NC1=O` (stereo not drawn) [Compound A], for which the “Minimal Inhibitory Concentration (MIC)” value was at most 0.08 µg/mL with S. aureus - USA300, at most 0.15 µg/mL in assay [1], at most 0.04 µg/mL in assay [2] and at most 0.3 µg/mL in assay [3].
As usually defined, the MIC is the lowest concentration found to suppress growth. As to `C/N=C(\NC)NCCCCCCCCCCCCCCCCC(=O)NC(C)C(=O)NC1CC2(CS/C=C\NC(=O)C(CO)NC(=O)C(CCC(N)=O)NC2=O)NC(=O)CNC(=O)C(CC(C)C)NC1=O` (stereo not drawn) [Compound C], the “Minimal Inhibitory Concentration (MIC)” value in the assay on S. aureus - USA300 was at most 0.08 µg/mL; in assay [1], at most 0.08 µg/mL; in [2] it was at most 0.04 µg/mL; in assay [3], at most 0.3 µg/mL. For the same compound, the MIC is at most 0.125 µg/mL in [4]; at most 1 µg/mL against M. tuberculosis H37Rv; at most 0.25 µg/mL in [5]; at most 0.25 µg/mL in [6]; at most 0.06 µg/mL with P. acnes 1201; at most 0.25 µg/mL in the assay on S. mitis 39050149. In addition, the minimum inhibitory concentration (MIC) is at most 0.25 µg/mL with S. oralis 39151368; at most 0.25 µg/mL in the assay with C. difficile ATCC 700057; at most 0.5 µg/mL against S. pyogenes 37352281; at most 0.125 µg/mL in assay [7]; at most 0.5 µg/mL in assay [8]; at most 0.25 µg/mL against S. agalactiae 31432663. Besides, the minimum inhibitory concentration (MIC) in assay [2] (Table 3, Gram-positive aerobe, S. aureus ATCC13709, Methicillin sensitive) is at most 0.04 µg/mL; in assay [9], at most 0.25 µg/mL; in assay [3] (Table 3, Gram-positive aerobe, S. aureus ATCC1683, Methicillin resistant), at most 0.3 µg/mL; in assay [10], at most 0.25 µg/mL.
